Publication PMC7408493, “Implication of Opioid Receptors in the Antihypertensive Effect of a Novel Chicken Foot-Derived Peptide” (Biomolecules, 2020)
Ends that are not written are not given here.

What was measured:
porcine pepsin = molecular target: T1, porcine pepsin (Sus scrofa, UniProt P00791); test: In vitro simulated gastric digestion (G60); type: in vitro ADME; settings: 60 min
T1 construct: purchased Sigma-Aldrich (Madrid, Spain)
Experimental: For the in vitro simulated peptide GI digestion, a two-stage hydrolysis process was carried out according to Martos et al.. […] was dissolved in simulated gastric fluid (35 mM NaCl at pH 2 for 15 min) and posteriorly subjected to digestion by porcine pepsin (E.C. 3.4.23.1, 3440 units/mg) at an enzyme/substrate ratio of 1: 20 w/w at 37 °C for 60 min. Gastric digestion with pepsin was stopped by adding 1 M NaHCO3 and pH was adjusted to 7.0 with NaOH 1 M (final protein concentration of 5 mg/mL). Aliquots of this gastric digest were collected (G60) and stored at −20 °C until analysis. Duodenal digestions were performed by using, as the starting material, the obtained gastric digests, with the addition of 1 M CaCl2, 0.25 M bis-Tris pH 6.5, 0.25 M bis-Tris pH 6.5, and a 0.125 M bile salts mixture containing equimolar quantities of sodium taurocholate and glycodeoxycholic acid. Posteriorly, the duodenal enzymes trypsin (EC 232-650-8, 10100 BAEE units/mg protein), α-chymotrypsin (EC 232-671-2; 55 units/mg protein), porcine pancreatic lipase (EC 232-619-9) and colipase (EC 259-490-1), prepared in 35 mM NaCl adjusted to pH 7, were added to the solution. Duodenal digestion was carried out at pH 7, 37 °C during 60 (D60). Then, enzymes were inactivated by heating at 95 °C for 10 min in a water bath, followed by cooling to room temperature. Triplicates of aliquots at each time point were collected and stored at −20 °C until analysis.
(§1) Samples obtained from in vitro peptide simulated digestion and Caco-2 monolayers were diluted 10 times with water (0.1% FA) and centrifuged (15,000 rpm, 15 min, 4 °C). Supernatants were directly analyzed by UHPLC-HRMS to avoid the loss of polar peptide fragments. Extensive clean-up or pre-concentration procedures were not necessary due to the high concentration of peptide and low matrix complexity than plasma samples.
(§2) The obtained purified solutions from plasma and peptide digests G60 and D60 and from AP and BL chambers in Caco-2 experiment were analyzed using a UHPLC 1290 Infinity II Series coupled to a QqQ 6490 Series (Agilent Technologies, Santa Clara, CA, USA) for tandem mass experiments or a qTOF 6550 Series (Agilent Technologies) for high-resolution mass spectrometry experiments. Chromatographic separation of peptide or their fragments were performed using a Kinetex 2.6 µm EVO C18 column (150 × 2.1 mm, […]) from (Phenomenex, Torrance, USA) as stationary phase and water containing 0.1% formic acid (solvent A) and acetonitrile (solvent B) as mobile phase. The separation was performed in gradient elution as follows: isocratic; 0–0.5 min, 2 % B; 0.5–1 min, 2–6% B; 1–5 min, 6–15% B; 5–6 min, 15–35% B; 6–10 min, 35–98% B; 10–12 min, 98% B isocratic; 12–12.10, 98–2% B. For all runs, 10 μL of the sample (4 °C) was injected, and the flow rate was 0.350 mL/min and the column temperature was 25 °C.
(§3) For in vitro simulated digestion experiments and Caco-2 monolayer samples, qTOF instrument was used to investigate the presence of unknown peptide fragments and previously in silico predicted peptide fragments by means of its accurate mass. Peptide and its fragments were semi-quantified using the chromatographic peak area observed in the extracted ion chromatograms using a 20 ppm mass window.

Caco-2 cell monolayers = test: Transepithelial transport through Caco-2 monolayer; type: in vitro ADME; settings: 1 h, 37 °C, UHPLC-HRMS
Experimental: Caco-2 cells were obtained from Sigma-Aldrich and were grown Dulbecco’s modified minimum essential medium (DMEM), supplemented with 20% fetal bovine serum (FBS), […] L-glutamine, 100 U/mL penicillin and 100 μg/mL streptomycin at 37 °C in and 5% CO2. Cells were seeded onto Transwell inserts permeable membrane support (0.4 µm pore, 24 mm diameter, 4.7 cm^2 grown surface from Merck Co., Bedford, MA, USA) placed in six-well plates. The seeding density was 12,000 cell/cm^2. The medium was replaced every 2–3 days and cells were growing for 21 days. On the 21st day of the procedure, the integrity of the Caco-2 monolayer was assessed by the measurement of transepithelial electrical resistance (TEER) using a Millicell ERS-2 voltammeter (EMD Millipore, Darmstadt, Germany) selecting the ones with TEER values higher than 200 Ω/cm^2.
For the transport study, Caco-2 cells, maintained in DMEM, were gently rinsed with Hank’s balanced salt solution (HBSS) and equilibrated for 20 min at 37 °C prior to the transport study. Then, it was evaluated the transepithelial transport of the peptide […] (1 mM) dissolved in HBSS and the digests obtained in the in vitro simulated digestion (G60 and D60). […] or the peptide digests G60 and D60 were added to the apical (AP) chamber and were incubated for 1 h at 37 °C. After this time, triplicates of the AP chamber content and the basolateral (BL) chamber content were taken and stored at −80 °C until ultra-high performance liquid chromatography-high resolution mass spectrometry (UHPLC-HRMS) analyses.
as §1, §2, §3

T1 sequence (P00791 60-385): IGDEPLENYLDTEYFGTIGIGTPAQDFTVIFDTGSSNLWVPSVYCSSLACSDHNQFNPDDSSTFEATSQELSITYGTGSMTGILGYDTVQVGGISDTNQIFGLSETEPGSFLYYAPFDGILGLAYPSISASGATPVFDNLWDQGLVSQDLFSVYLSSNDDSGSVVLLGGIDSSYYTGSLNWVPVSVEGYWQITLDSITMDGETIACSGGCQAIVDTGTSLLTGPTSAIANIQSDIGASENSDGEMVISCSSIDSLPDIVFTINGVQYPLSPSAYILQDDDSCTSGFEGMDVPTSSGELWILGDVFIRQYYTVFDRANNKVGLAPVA

In the case of AVFQHNCQE, the “Resistance to gastric digestion” value (porcine pepsin; pepsin, pH 2, 37 °C, most intense signal in G60 was the native peptide) is reported as “resistant to gastric digestion”, the “Area G60 (chromatographic peak area)” value (porcine pepsin; simulated gastric fluid 35 mM NaCl pH 2, porcine pepsin enzyme/substrate 1:20 w/w, 37 °C, UHPLC-HRMS extracted ion chromatogram, 20 ppm window, semi-quantified, triplicate aliquots) is reported as 5,236,186 and the “G60 % Transport” value (Caco-2 cell monolayers; 21 days, TEER > 200 Ω/cm^2, gastric digest G60 added to apical chamber, AP to BL, HBSS, content in basolateral chamber in comparison to apical chamber, triplicates) is reported as 0.25%. For the same sequence, the “Absorption through the intestinal monolayer” value (Caco-2 cell monolayers; native peptide 1 mM in HBSS or digests in apical chamber) was “not absorbed through the intestinal monolayer”.
